Legend:
Experiment in all cases: relative viability (nuclei count vs DMSO), 5 days (fraction); higher = more cells survive
[1] = compound: CN(C)C(=N)NC(=N)N [Metformin] + CC1(C)CCC(c2ccc(Cl)cc2)=C(CN2CCN(c3ccc(C(=O)NS(=O)(=O)c4ccc(N[C@H](CCN5CCOCC5)CSc5ccccc5)c(S(=O)(=O)C(F)(F)F)c4)cc3)CC2)C1 [Navitoclax] (partner 0.5 µM)
Outline: (§1)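 The day after seeding in 1536-well plates, lung cancer cell lines were treated by pin tool with a single drug, or with a fixed anchor-drug dose together with five library-drug doses (not always all listed) in √10 steps. After 5 days, a combined fix-and-stain solution (final 0.05% Triton X-100, 1% formaldehyde, 1 ug/ml Hoechst) was added. Nuclei counted on 4× images gave relative viability as treated counts over vehicle counts, reported as the median of duplicate plates.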

[2] = compound: CN(C)C(=N)NC(=N)N [Metformin] + CS(=O)(=O)CCNCc1ccc(-c2ccc3ncnc(Nc4ccc(OCc5cccc(F)c5)c(Cl)c4)c3c2)o1 [Lapatinib] (partner 2 µM)
Outline: as §1

[3] = compound: N#CC1(c2ccc(NC(=O)c3cccnc3NCc3ccncc3)cc2)CCCC1 [Apatinib] + CCNC(=O)c1noc(-c2cc(C(C)C)c(O)cc2O)c1-c1ccc(CN2CCOCC2)cc1 [Luminespib] (partner 0.01 µM)
Outline: as §1

[4] = compound: N#CC1(c2ccc(NC(=O)c3cccnc3NCc3ccncc3)cc2)CCCC1 [Apatinib] + Cc1nc(Nc2ncc(C(=O)Nc3c(C)cccc3Cl)s2)cc(N2CCN(CCO)CC2)n1 [Dasatinib] (partner 0.075 µM)
Outline: as §1

Cell Line: NCI-H2126
- relative viability ([1]; first compound 10 µM): 0.788
- relative viability ([1]; first compound 31.62 µM): 0.834
- relative viability ([1]; first compound 100 µM): 0.842
- relative viability ([1]; first compound 316.23 µM): 0.771
- relative viability ([1]; first compound 1000 µM): 0.787
- relative viability ([2]; first compound 10 µM): 0.678
- relative viability ([2]; first compound 31.62 µM): 0.774
- relative viability ([2]; first compound 100 µM): 0.771
- relative viability ([2]; first compound 316.23 µM): 0.787
- relative viability ([2]; first compound 1000 µM): 0.749
- relative viability ([3]; first compound 0.08 µM): 0.963
- relative viability ([3]; first compound 0.253 µM): 0.774
- relative viability ([3]; first compound 0.8 µM): 0.985
- relative viability ([3]; first compound 2.53 µM): 0.826
- relative viability ([3]; first compound 8 µM): 0.832
- relative viability ([4]; first compound 0.08 µM): 0.584
- relative viability ([4]; first compound 0.253 µM): 0.514
- relative viability ([4]; first compound 0.8 µM): 0.52
- relative viability ([4]; first compound 2.53 µM): 0.488
- relative viability ([4]; first compound 8 µM): 0.446

Cell Line: CAL-12T
- relative viability ([1]; first compound 31.62 µM): 1.35
- relative viability ([1]; first compound 100 µM): 1.14
- relative viability ([1]; first compound 316.23 µM): 1.29
- relative viability ([1]; first compound 1000 µM): 1.09
- relative viability ([2]; first compound 10 µM): 0.645
- relative viability ([2]; first compound 31.62 µM): 0.801
- relative viability ([2]; first compound 100 µM): 0.794
- relative viability ([2]; first compound 316.23 µM): 0.618
- relative viability ([2]; first compound 1000 µM): 0.736
- relative viability ([3]; first compound 0.08 µM): 0.565
- relative viability ([3]; first compound 0.253 µM): 0.315
- relative viability ([3]; first compound 0.8 µM): 0.261
- relative viability ([3]; first compound 2.53 µM): 0.882
- relative viability ([3]; first compound 8 µM): 0.661
- relative viability ([4]; first compound 0.08 µM): 0.523
- relative viability ([4]; first compound 0.253 µM): 0.602
- relative viability ([4]; first compound 0.8 µM): 0.38
- relative viability ([4]; first compound 2.53 µM): 0.262
- relative viability ([4]; first compound 8 µM): 0.234

Cell Line: NCI-H358
- relative viability ([2]; first compound 10 µM): 0.409
- relative viability ([2]; first compound 31.62 µM): 0.671
- relative viability ([2]; first compound 100 µM): 0.616
- relative viability ([2]; first compound 316.23 µM): 0.58
- relative viability ([2]; first compound 1000 µM): 0.602
- relative viability ([3]; first compound 0.08 µM): 0.246
- relative viability ([3]; first compound 0.253 µM): 0.368
- relative viability ([3]; first compound 0.8 µM): 0.684
- relative viability ([3]; first compound 2.53 µM): 0.382
- relative viability ([3]; first compound 8 µM): 0.236
- relative viability ([4]; first compound 0.08 µM): 0.188
- relative viability ([4]; first compound 0.253 µM): 0.151
- relative viability ([4]; first compound 0.8 µM): 0.139
- relative viability ([4]; first compound 2.53 µM): 0.206
- relative viability ([4]; first compound 8 µM): 0.186

Cell Line: HCC-44
- relative viability ([1]; first compound 10 µM): 0.99
- relative viability ([1]; first compound 31.62 µM): 1.08
- relative viability ([1]; first compound 100 µM): 0.957
- relative viability ([1]; first compound 316.23 µM): 0.888
- relative viability ([1]; first compound 1000 µM): 1.06
- relative viability ([2]; first compound 10 µM): 1.05
- relative viability ([2]; first compound 31.62 µM): 0.976
- relative viability ([2]; first compound 100 µM): 1.03
- relative viability ([2]; first compound 316.23 µM): 0.939
- relative viability ([2]; first compound 1000 µM): 1.03
- relative viability ([3]; first compound 0.08 µM): 0.98
- relative viability ([3]; first compound 0.253 µM): 1.21
- relative viability ([3]; first compound 0.8 µM): 1.03
- relative viability ([3]; first compound 2.53 µM): 1.02
- relative viability ([3]; first compound 8 µM): 0.751

Cell Line: EKVX
- relative viability ([1]; first compound 10 µM): 0.681
- relative viability ([1]; first compound 31.62 µM): 0.889
- relative viability ([1]; first compound 100 µM): 0.968
- relative viability ([1]; first compound 316.23 µM): 0.779
- relative viability ([1]; first compound 1000 µM): 0.948
- relative viability ([2]; first compound 10 µM): 0.185
- relative viability ([2]; first compound 31.62 µM): 0.16
- relative viability ([2]; first compound 100 µM): 0.176
- relative viability ([2]; first compound 316.23 µM): 0.222
- relative viability ([2]; first compound 1000 µM): 0.196
- relative viability ([3]; first compound 0.08 µM): 0.841
- relative viability ([3]; first compound 0.253 µM): 0.857
- relative viability ([3]; first compound 0.8 µM): 0.851
- relative viability ([3]; first compound 2.53 µM): 0.821
- relative viability ([3]; first compound 8 µM): 0.816
- relative viability ([4]; first compound 0.08 µM): 0.603
- relative viability ([4]; first compound 0.253 µM): 0.621
- relative viability ([4]; first compound 0.8 µM): 0.478
- relative viability ([4]; first compound 2.53 µM): 0.361
- relative viability ([4]; first compound 8 µM): 0.325

Cell Line: NCI-H1734
- relative viability ([1]; first compound 10 µM): 0.882
- relative viability ([1]; first compound 31.62 µM): 0.863
- relative viability ([1]; first compound 100 µM): 0.908
- relative viability ([1]; first compound 316.23 µM): 0.822
- relative viability ([1]; first compound 1000 µM): 0.905
- relative viability ([2]; first compound 10 µM): 1.03
- relative viability ([2]; first compound 31.62 µM): 1.04
- relative viability ([2]; first compound 100 µM): 1.09
- relative viability ([2]; first compound 316.23 µM): 0.991
- relative viability ([2]; first compound 1000 µM): 1.14
- relative viability ([3]; first compound 0.08 µM): 0.19
- relative viability ([3]; first compound 0.253 µM): 0.187
- relative viability ([3]; first compound 0.8 µM): 0.275
- relative viability ([3]; first compound 2.53 µM): 0.165
- relative viability ([3]; first compound 8 µM): 0.193
- relative viability ([4]; first compound 0.08 µM): 0.547
- relative viability ([4]; first compound 0.253 µM): 0.521
- relative viability ([4]; first compound 0.8 µM): 0.439
- relative viability ([4]; first compound 2.53 µM): 0.424
- relative viability ([4]; first compound 8 µM): 0.399

Cell Line: NCI-H1395
- relative viability ([1]; first compound 10 µM): 1.11
- relative viability ([1]; first compound 31.62 µM): 1.32
- relative viability ([1]; first compound 100 µM): 1.06
- relative viability ([1]; first compound 316.23 µM): 0.958
- relative viability ([1]; first compound 1000 µM): 1.1
- relative viability ([2]; first compound 10 µM): 1.11
- relative viability ([2]; first compound 31.62 µM): 1.25
- relative viability ([2]; first compound 100 µM): 1.36
- relative viability ([2]; first compound 316.23 µM): 0.963
- relative viability ([2]; first compound 1000 µM): 0.576
- relative viability ([3]; first compound 0.08 µM): 0.713
- relative viability ([3]; first compound 0.253 µM): 0.686
- relative viability ([3]; first compound 0.8 µM): 0.784
- relative viability ([3]; first compound 2.53 µM): 0.604
- relative viability ([3]; first compound 8 µM): 0.527
- relative viability ([4]; first compound 0.08 µM): 0.412
- relative viability ([4]; first compound 0.253 µM): 0.399
- relative viability ([4]; first compound 0.8 µM): 0.367
- relative viability ([4]; first compound 2.53 µM): 0.349
- relative viability ([4]; first compound 8 µM): 0.378
